Reference: US12264156B2, “Compounds and pharmaceutical compositions thereof for the treatment of diseases” (GALAPAGOS NV, priority 2018, dated 2025)

Columns and labels:
Assay type in all cases: biochemical
Conditions in all cases: ADP-Glo SIK kinase assay
SIK1 = molecular target: T1, SIK1 (Homo sapiens, UniProt P57059); test: ADP-Glo kinase assay, SIK1
T1 construct: purchased Carna Biosciences 02-131
Protocol: (§1) The ADP-Glo™ kinase assay is a luminescent technology assay which measures the ADP formed from a kinase reaction. […] In a second step the kinase reactions are terminated and all the remaining ATP is depleted. In a final step the ADP is converted into ATP and this newly synthesized ATP is measured by using a luciferase/luciferin reaction. The generated light is measured using an Envision plate reader, wherein the luminescent signal obtained positively correlates with the kinase activity.
(§2) 1% DMSO and 10 μM staurosporine final concentrations are used as negative and positive controls.
(§3) 2 μL enzyme-substrate mixture is added to the assay plates.
(§4) The reaction is started by adding 2 μL diluted ATP on the assay plates. Plates are centrifuged for a few seconds at 1000 rpm and gently shaken for 2 min followed by an incubation at RT for 120 min.
(§5) The reactions are stopped and the unconsumed ATP is depleted by adding 5 μL ADP-Glo Reagent (Promega, Cat #V912B) to the reaction. The plates are centrifuged for a few seconds at 1000 rpm and incubated at RT for 40 min (ATP depletion).
(§6) The ADP is converted to ATP and luciferase and luciferin is introduced to detect ATP by adding 10 μL Kinase Detection Reagent (Promega, Cat #V913B+V914B) to the reaction. The plates are centrifuged for a few seconds at 1000 rpm and incubated at RT for 30 min (ADP detection).
(§7) Luminescence is measured on an Envision plate reader (PerkinElmer Inc.).

SIK2 = molecular target: T2, SIK2 (Homo sapiens, UniProt Q9H0K1); test: ADP-Glo kinase assay, SIK2
T2 construct: purchased ThermoFisher Scientific PV4792
Protocol: as §1, §2, §3, §4, §5, §6, §7

SIK3 = molecular target: T3, SIK3 (Homo sapiens, UniProt Q9Y2K2); test: ADP-Glo kinase assay, SIK3
T3 construct: purchased SignalChem S12-11G-100
Protocol: as §1, §2, §3, §4, §5, §6, §7

T2 sequence (Q9H0K1 whole entry): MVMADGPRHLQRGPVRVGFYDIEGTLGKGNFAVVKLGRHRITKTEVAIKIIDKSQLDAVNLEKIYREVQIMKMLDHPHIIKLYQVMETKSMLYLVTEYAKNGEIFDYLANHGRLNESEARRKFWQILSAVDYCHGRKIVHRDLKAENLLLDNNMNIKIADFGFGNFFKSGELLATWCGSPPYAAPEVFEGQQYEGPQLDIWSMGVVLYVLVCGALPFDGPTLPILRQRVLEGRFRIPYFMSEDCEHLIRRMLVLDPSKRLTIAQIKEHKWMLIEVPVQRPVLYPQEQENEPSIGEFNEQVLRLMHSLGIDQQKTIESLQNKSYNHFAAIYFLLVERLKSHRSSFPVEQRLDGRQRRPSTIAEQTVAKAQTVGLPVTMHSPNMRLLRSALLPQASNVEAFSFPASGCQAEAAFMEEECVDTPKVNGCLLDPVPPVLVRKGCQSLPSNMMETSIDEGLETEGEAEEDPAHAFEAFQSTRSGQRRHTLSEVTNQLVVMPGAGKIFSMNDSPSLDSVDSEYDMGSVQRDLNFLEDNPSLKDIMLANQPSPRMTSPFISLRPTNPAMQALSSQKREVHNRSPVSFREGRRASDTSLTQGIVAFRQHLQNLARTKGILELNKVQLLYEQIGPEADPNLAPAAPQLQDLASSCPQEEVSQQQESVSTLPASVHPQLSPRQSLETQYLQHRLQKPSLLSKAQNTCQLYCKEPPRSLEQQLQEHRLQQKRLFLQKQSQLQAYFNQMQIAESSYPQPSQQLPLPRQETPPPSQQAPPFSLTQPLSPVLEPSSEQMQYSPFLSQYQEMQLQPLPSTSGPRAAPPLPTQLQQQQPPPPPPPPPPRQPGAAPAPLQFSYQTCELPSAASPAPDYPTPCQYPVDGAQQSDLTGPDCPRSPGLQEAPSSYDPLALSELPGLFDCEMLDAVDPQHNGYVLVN
T1 sequence (P57059 whole entry): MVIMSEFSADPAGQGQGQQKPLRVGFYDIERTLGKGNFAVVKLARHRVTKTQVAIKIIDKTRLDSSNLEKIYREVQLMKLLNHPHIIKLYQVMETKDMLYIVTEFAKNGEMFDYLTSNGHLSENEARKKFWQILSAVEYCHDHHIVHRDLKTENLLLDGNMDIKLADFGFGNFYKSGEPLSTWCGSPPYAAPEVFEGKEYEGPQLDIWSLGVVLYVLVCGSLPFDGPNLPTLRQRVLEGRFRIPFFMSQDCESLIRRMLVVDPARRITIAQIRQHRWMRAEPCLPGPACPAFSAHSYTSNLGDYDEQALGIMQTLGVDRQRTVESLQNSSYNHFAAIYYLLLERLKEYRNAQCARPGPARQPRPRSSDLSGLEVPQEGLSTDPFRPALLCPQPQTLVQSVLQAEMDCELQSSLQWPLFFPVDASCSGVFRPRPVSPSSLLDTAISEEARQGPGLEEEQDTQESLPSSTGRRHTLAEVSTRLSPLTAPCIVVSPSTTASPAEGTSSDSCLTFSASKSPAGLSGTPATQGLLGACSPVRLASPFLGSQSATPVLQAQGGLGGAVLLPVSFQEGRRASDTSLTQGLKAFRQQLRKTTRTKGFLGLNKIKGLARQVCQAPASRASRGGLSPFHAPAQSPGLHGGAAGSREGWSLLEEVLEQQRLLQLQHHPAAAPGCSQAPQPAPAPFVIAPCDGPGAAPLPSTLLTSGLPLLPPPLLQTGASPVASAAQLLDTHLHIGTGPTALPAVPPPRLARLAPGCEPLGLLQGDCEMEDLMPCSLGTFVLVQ
T3 sequence (Q9Y2K2 whole entry): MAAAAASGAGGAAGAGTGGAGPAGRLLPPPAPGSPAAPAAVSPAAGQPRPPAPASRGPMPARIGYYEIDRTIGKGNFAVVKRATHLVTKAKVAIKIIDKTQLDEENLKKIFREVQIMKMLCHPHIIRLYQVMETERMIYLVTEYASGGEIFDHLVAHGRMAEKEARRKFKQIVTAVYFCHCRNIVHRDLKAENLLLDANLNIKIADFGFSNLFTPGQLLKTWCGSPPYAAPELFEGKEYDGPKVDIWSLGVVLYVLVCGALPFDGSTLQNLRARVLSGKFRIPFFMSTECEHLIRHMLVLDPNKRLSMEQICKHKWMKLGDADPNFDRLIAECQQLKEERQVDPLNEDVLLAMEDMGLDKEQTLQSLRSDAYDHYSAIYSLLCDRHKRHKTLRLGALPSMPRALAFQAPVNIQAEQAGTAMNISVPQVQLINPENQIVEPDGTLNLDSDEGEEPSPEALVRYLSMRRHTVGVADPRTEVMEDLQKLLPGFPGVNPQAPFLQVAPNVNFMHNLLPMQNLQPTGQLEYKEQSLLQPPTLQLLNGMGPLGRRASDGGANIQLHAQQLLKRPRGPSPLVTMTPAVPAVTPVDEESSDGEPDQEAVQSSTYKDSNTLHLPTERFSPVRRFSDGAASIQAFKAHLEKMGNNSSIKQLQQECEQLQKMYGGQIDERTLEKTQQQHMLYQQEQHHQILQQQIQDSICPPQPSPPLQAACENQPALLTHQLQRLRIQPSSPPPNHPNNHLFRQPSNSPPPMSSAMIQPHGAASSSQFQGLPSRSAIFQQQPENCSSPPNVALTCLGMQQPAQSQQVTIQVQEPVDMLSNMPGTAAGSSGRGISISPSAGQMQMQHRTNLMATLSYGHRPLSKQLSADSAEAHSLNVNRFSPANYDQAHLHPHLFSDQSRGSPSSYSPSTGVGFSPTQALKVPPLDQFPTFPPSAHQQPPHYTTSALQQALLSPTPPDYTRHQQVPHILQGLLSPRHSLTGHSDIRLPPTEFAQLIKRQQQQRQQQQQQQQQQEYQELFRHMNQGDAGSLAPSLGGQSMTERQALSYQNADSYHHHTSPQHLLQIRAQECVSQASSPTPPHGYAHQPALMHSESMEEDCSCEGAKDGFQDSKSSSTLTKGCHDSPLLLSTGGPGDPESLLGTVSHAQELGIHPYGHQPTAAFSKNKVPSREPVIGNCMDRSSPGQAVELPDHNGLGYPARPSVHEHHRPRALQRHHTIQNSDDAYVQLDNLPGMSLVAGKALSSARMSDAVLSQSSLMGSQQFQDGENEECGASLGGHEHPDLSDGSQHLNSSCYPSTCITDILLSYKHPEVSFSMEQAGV

Row | Compound | IC50 (SIK1) | IC50 (SIK2) | IC50 (SIK3)
1 | COc1cc(-c2cnc3cc(OCCNc4ccncn4)ccn23)cc(OC(F)F)c1C(=O)NC1CC1 [compound 369, N-cyclopropyl-2-(difluoromethoxy)-6-methoxy-4-[7-[2-(pyrimidin-4-ylamino)ethoxy]imidazo [1,2-a]pyridin-3-yl]benzamide] | 0.01 to 10 nM | 0.01 to 10 nM | 0.01 to 10 nM
2 | COc1cc(-c2cnc3cc(OCCOCCN4CCOCC4)ccn23)cc(OC(F)F)c1C(=O)NC1CC1 [compound 306, N-cyclopropyl-2-(difluoromethoxy)-6-methoxy-4-[7-[2-(2-morpholinoethoxy)ethoxy]imidazo[1,2-a]pyridin-3-yl]benzamide] | 10 to 100 nM | 0.01 to 10 nM | 0.01 to 10 nM
3 | COc1cc(-c2cnc3cc(OCC4CCCCN4C(C)C)ccn23)cc(OC(F)F)c1C(=O)NC1CC1 (stereo not drawn) [compound 148, N-cyclopropyl-2-(difluoromethoxy)-4-[7-[(1-isopropyl-2-piperidyl)methoxy]imidazo [1,2-a]pyridin-3-yl]-6-methoxy-benzamide] | 100 to 500 nM | 0.01 to 10 nM | 0.01 to 10 nM
4 | O=C1c2c(cc(-c3cnc4cc(OCCN5CCOCC5)ccn34)cc2OC(F)F)CCN1CC(F)F [Cpd 247, 2-(2,2-difluoroethyl)-8-(difluoromethoxy)-6-[7-(2-morpholinoethoxy)imidazo[1,2-a]pyridin-3-yl]-3,4-dihydroisoquinolin-1-one] | 100 to 500 nM | 0.01 to 10 nM | 0.01 to 10 nM
5 | COc1cc(-c2cnc3cc(OCC(N)C4CC4)ccn23)cc(OC(F)F)c1C(=O)NC1CC1 (stereo not drawn) [compound 137, 4-[7-(2-amino-2-cyclopropyl-ethoxy)imidazo[1,2-a]pyridin-3-yl]-N-cyclopropyl-2-(difluoromethoxy)-6-methoxy-benzamide] | 10 to 100 nM | 0.01 to 10 nM | 0.01 to 10 nM
6 | COc1cc(-c2cnc3cc(OCC4CN(C)C(=O)O4)ccn23)cc(OC(F)F)c1C(=O)NC1CC1 (stereo not drawn) [compound 228, N-cyclopropyl-2-(difluoromethoxy)-6-methoxy-4-[7-[(3-methyl-2-oxo-oxazolidin-5-yl)methoxy]imidazo[1,2-a]pyridin-3-yl]benzamide] | 0.01 to 10 nM | 0.01 to 10 nM | 0.01 to 10 nM
7 | COCCOc1ccn2c(-c3cc(OC)c(C(=O)NC4CC4)c(OC(F)F)c3)cnc2c1 [compound 70, N-cyclopropyl-2-(difluoromethoxy)-6-methoxy-4-[7-(2-methoxyethoxy)imidazo [1,2-a]pyridin-3-yl]benzamide] | 10 to 100 nM | 0.01 to 10 nM | 0.01 to 10 nM
8 | COc1cc(-c2cnc3cc(OCC4(CN)CCC4)ccn23)cc(OC(F)F)c1C(=O)NC1CC1 [compound 116, 4-[7-[[1-(aminomethyl)cyclobutyl]methoxy]imidazo[1,2-a]pyridin-3-yl]-N-cyclopropyl-2-(difluoromethoxy)-6-methoxy-benzamide] | 10 to 100 nM | 0.01 to 10 nM | 0.01 to 10 nM
9 | COc1cc(-c2cnc3cc(OC4CCCN(C)C4)ccn23)cc(OC(F)F)c1C(=O)NC1CC1 (stereo not drawn) [compound 2, N-cyclopropyl-2-(difluoromethoxy)-6-methoxy-4-[7-[(1-methyl-3-piperidyl)oxy]imidazo [1,2-a]pyridin-3-yl]benzamide] | > 500 nM | 10 to 100 nM | 0.01 to 10 nM
10 | COc1cc(-c2cnc3cc(OCCF)ccn23)cc(OC(F)F)c1C(=O)NC1CC1 [compound 36, N-cyclopropyl-2-(difluoromethoxy)-4-[7-(2-fluoroethoxy)imidazo[1,2-a]pyridin-3-yl]-6-methoxy-benzamide] | 10 to 100 nM | 0.01 to 10 nM | 0.01 to 10 nM
11 | COc1cc(-c2cnc3cc(OCc4cc(C)nn4C)ccn23)cc(OC(F)F)c1C(=O)NC1CC1 [compound 198, N-cyclopropyl-2-(difluoromethoxy)-4-[7-[(2,5-dimethylpyrazol-3-yl)methoxy]imidazo[1,2-a]pyridin-3-yl]-6-methoxy-benzamide] | 10 to 100 nM | 0.01 to 10 nM | 0.01 to 10 nM
12 | COc1cc(-c2cnc3cc(OCC(F)(F)F)ccn23)cc(OC(F)F)c1C(=O)NC1CC1 [compound 91, N-cyclopropyl-2-(difluoromethoxy)-6-methoxy-4-[7-(2,2,2-trifluoroethoxy)imidazo [1,2-a]pyridin-3-yl]benzamide] | 10 to 100 nM | 0.01 to 10 nM | 0.01 to 10 nM
13 | COc1cc(-c2cnc3cc(OCCN4C(C)CCCC4C)ccn23)cc(OC(F)F)c1C(=O)NC1CC1 (stereo not drawn) [compound 294, N-cyclopropyl-2-(difluoromethoxy)-4-[7-[2-(2,6-dimethyl-1-piperidyl)ethoxy]imidazo [1,2-a]pyridin-3-yl]-6-methoxy-benzamide] | 10 to 100 nM | 0.01 to 10 nM | 0.01 to 10 nM
14 | COc1cc(-c2cnc3cc(OCCN4CCOC(C)C4)ccn23)cc(OC(F)F)c1C(=O)NC1CC1 (stereo not drawn) [compound 214, N-cyclopropyl-2-(difluoromethoxy)-6-methoxy-4-[7-[2-(2-methylmorpholin-4-yl)ethoxy]imidazo[1,2-a]pyridin-3-yl] benzamide] | 10 to 100 nM | 0.01 to 10 nM | 0.01 to 10 nM
15 | COc1cc(-c2cnc3cc(OCCNCCO)ccn23)cc(OC(F)F)c1C(=O)NC1CC1 [compound 114] | 10 to 100 nM | 0.01 to 10 nM | 0.01 to 10 nM
16 | COc1cc(-c2cnc3cc(OCc4cscn4)ccn23)cc(OC(F)F)c1C(=O)NC1CC1 [compound 46, N-cyclopropyl-2-(difluoromethoxy)-6-methoxy-4-[7-(thiazol-4-ylmethoxy)imidazo[1,2-a]pyridin-3-yl]benzamide] | 10 to 100 nM | 0.01 to 10 nM | 0.01 to 10 nM
17 | COc1cc(-c2cnc3cc(OC4CC(C#N)C4)ccn23)cc(OC(F)F)c1C(=O)NC1CC1 (stereo not drawn) [compound 164, 4-[7-(3-cyanocyclobutoxy)imidazo [1,2-a]pyridin-3-yl]-N-cyclopropyl-2-(difluoromethoxy)-6-methoxy-benzamide] | 10 to 100 nM | 0.01 to 10 nM | 0.01 to 10 nM
18 | COc1cc(-c2cnc3cc(OCC(N)C(C)C)ccn23)cc(OC(F)F)c1C(=O)NC1CC1 (stereo not drawn) [compound 121, 4-[7-(2-amino-3-methyl-butoxy)imidazo[1,2-a]pyridin-3-yl]-N-cyclopropyl-2-(difluoromethoxy)-6-methoxy-benzamide] | 10 to 100 nM | 0.01 to 10 nM | 0.01 to 10 nM
19 | COc1cc(-c2cnc3cc(OCC4CCC(=O)N4)ccn23)cc(OC(F)F)c1C(=O)NC1CC1 (stereo not drawn) [compound 99, N-cyclopropyl-2-(difluoromethoxy)-6-methoxy-4-[7-[(5-oxopyrrolidin-2-yl)methoxy]imidazo[1,2-a]pyridin-3-yl]benzamide] | 0.01 to 10 nM | 0.01 to 10 nM | 0.01 to 10 nM
20 | COc1cc(-c2cnc3cc(OC[C@H]4CNCC[C@@H]4O)ccn23)cc(OC(F)F)c1C(=O)NC1CC1 (racemic) [Cpd 373, N-cyclopropyl-2-(difluoromethoxy)-4-[7-[[(3R,4S)-4-hydroxy-3-piperidyl]methoxy]imidazo [1,2-a]pyridin-3-yl]-6-methoxy-benzamide/ N-cyclopropyl-2-(difluoromethoxy)-4-[7-[[(3S,4R)-4-hydroxy-3-piperidyl]methoxy]imidazo [1,2-a]pyridin-3-yl]-6-methoxy-benzamide mixture] | 10 to 100 nM | 0.01 to 10 nM | 0.01 to 10 nM
21 | COc1cc(-c2cnc3cc(OCc4ccccn4)ccn23)cc(OC(F)F)c1C(=O)NC1CC1 [compound 105, N-cyclopropyl-2-(difluoromethoxy)-6-methoxy-4-[7-(2-pyridylmethoxy)imidazo [1,2-a]pyridin-3-yl]benzamide] | 10 to 100 nM | 0.01 to 10 nM | 0.01 to 10 nM
22 | COc1cc(-c2cnc3cc(OCc4ccncc4)ccn23)cc(OC(F)F)c1C(=O)NC1CC1 [compound 103, N-cyclopropyl-2-(difluoromethoxy)-6-methoxy-4-[7-(4-pyridylmethoxy)imidazo [1,2-a]pyridin-3-yl]benzamide] | 10 to 100 nM | 0.01 to 10 nM | 0.01 to 10 nM
23 | COc1cc(-c2cnc3cc(OCCNc4ccccn4)ccn23)cc(OC(F)F)c1C(=O)NC1CC1 [compound 367, N-cyclopropyl-2-(difluoromethoxy)-6-methoxy-4-[7-[2-(2-pyridylamino)ethoxy]imidazo[1,2-a]pyridin-3-yl]benzamide] | 0.01 to 10 nM | 0.01 to 10 nM | 0.01 to 10 nM
24 | CN(C)CCOc1ccn2c(-c3cc(F)c(C(=O)NCC(F)(F)F)c(OC(F)F)c3)cnc2c1 [compound 155, 2-(difluoromethoxy)-4-[7-[2-(dimethylamino)ethoxy]imidazo[1,2-a]pyridin-3-yl]-6-fluoro-N-(2,2,2-trifluoroethyl)benzamide] | > 500 nM | 10 to 100 nM | 10 to 100 nM
25 | COc1cc(-c2cnc3cc(OCCN4CCC4)ccn23)cc(OC(F)F)c1C(=O)NC1CC1 [compound 112, 4-[7-[2-(azetidin-1-yl)ethoxy]imidazo[1,2-a]pyridin-3-yl]-N-cyclopropyl-2-(difluoromethoxy)-6-methoxy-benzamide] | 10 to 100 nM | 0.01 to 10 nM | 0.01 to 10 nM
